Values of other authors in US6849617B2, “Tissue factor antagonists and methods of use thereof” (Sunol Molecular Corporation, priority 1999, dated 2005).

Target: tissue factor (TF) (Homo sapiens, UniProt P13726)
Settings: as disclosed in U.S. application Ser. No. 09/406269

Chain of tissue factor (TF) (P13726 33-295): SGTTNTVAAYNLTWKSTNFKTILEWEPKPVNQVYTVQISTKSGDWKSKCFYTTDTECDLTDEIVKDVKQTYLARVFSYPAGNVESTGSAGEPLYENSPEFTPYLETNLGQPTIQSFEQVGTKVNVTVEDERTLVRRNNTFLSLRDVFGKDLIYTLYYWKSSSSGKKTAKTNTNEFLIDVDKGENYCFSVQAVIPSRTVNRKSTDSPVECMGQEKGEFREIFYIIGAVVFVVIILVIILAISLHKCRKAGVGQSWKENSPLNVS

NCCCC(O)(P(=O)(O)O)P(=O)(O)O [alendronic acid]
TF antagonist activity: effective TF antagonist
